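These data come from cells grown in 96-well plates and exposed to compound for 48 hours at five concentrations. Abbreviation: GI50, concentration required for 50% inhibition of growth. TGI denotes the concentration required for complete inhibition of growth.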
Columns and labels:
Assay in all cases: DTP human tumour cell line panel, 48 h
[1] = test system: CCRF-CEM leukemia
[2] = test system: HCT-116 colon
[3] = test system: IGROV1 ovarian
[4] = test system: K-562 leukemia
[5] = test system: NCI-H226 lung
[6] = test system: NCI-H460 lung
[7] = test system: OVCAR-4 ovarian
[8] = test system: SF-268 CNS
[9] = test system: SF-295 CNS
[10] = test system: SW-620 colon
[11] = test system: T-47D breast

## C=C(C)[C@@H]1CC[C@]2(C)CC[C@]3(C)[C@H](CC[C@@H]4[C@@]5(C)CC[C@H](OC(=O)c6ccccc6)C(C)(C)[C@@H]5CC[C@]43C)[C@@H]12
[1]
  TGI: > 100 µM
[2]
  TGI: > 100 µM
[3]
  TGI: > 100 µM
[4]
  TGI: > 100 µM
[5]
  TGI: > 100 µM
[6]
  TGI: > 100 µM
[7]
  TGI: > 100 µM
[8]
  TGI: > 100 µM
[9]
  TGI: > 100 µM
[10]
  TGI: > 100 µM
[11]
  TGI: > 100 µM

## CC1SC(c2ccccc2)N(Nc2c3ccccc3nc3ccccc23)C1=O (stereo not given)
[1]
  TGI: > 100 µM
[2]
  TGI: > 100 µM
[3]
  TGI: > 100 µM
[4]
  TGI: > 100 µM
[5]
  TGI: > 100 µM
[6]
  TGI: > 100 µM
[7]
  TGI: > 100 µM
[8]
  TGI: > 100 µM
[9]
  TGI: > 100 µM
[10]
  TGI: > 100 µM

## COc1ccc(-c2cc(-c3ccccc3)n(C3OCC(OC(C)=O)C(OC(C)=O)C3OC(C)=O)c(=S)c2C#N)cc1 (stereo not given)
[1]
  TGI: > 100 µM
[2]
  TGI: > 100 µM
[3]
  TGI: > 100 µM
[4]
  TGI: > 100 µM
[5]
  TGI: > 100 µM
[6]
  TGI: > 100 µM
[7]
  TGI: > 100 µM
[8]
  TGI: > 100 µM
[9]
  TGI: > 100 µM
[10]
  TGI: > 100 µM
[11]
  TGI: > 100 µM

## COc1ccc(NS(=O)c2ccc(-c3ccccc3)cc2)cc1 (stereo not given)
[1]
  TGI: > 100 µM
[2]
  TGI: > 100 µM
[3]
  TGI: > 100 µM
[4]
  TGI: > 100 µM
[5]
  TGI: > 100 µM
[6]
  TGI: > 100 µM
[8]
  TGI: > 100 µM
[9]
  TGI: > 100 µM
[10]
  TGI: > 100 µM

## CN1CCN(c2ccc(-c3ccc4ncc(C#N)c(Nc5ccc(F)c(Cl)c5)c4c3)cc2)CC1
[1]
  GI50: 2.2 µM
  TGI: 6.52 µM
[3]
  GI50: 0.321 µM
  TGI: 10.5 µM
[5]
  GI50: 10.2 µM
  TGI: 34.3 µM
[6]
  GI50: 2.05 µM
  TGI: 6.67 µM
[7]
  GI50: 3.18 µM
  TGI: 25.6 µM
[8]
  GI50: 2.87 µM
  TGI: 15.9 µM
[9]
  GI50: 1.82 µM
  TGI: 3.61 µM
[10]
  GI50: 2.81 µM
  TGI: 14.5 µM
[11]
  GI50: 1.93 µM
  TGI: 7.15 µM

## O=C(N/C(=C\c1ccccc1[N+](=O)[O-])c1nc2ccccc2[nH]1)c1ccccc1
[1]
  TGI: > 100 µM
[3]
  TGI: > 100 µM
[4]
  TGI: > 100 µM
[7]
  TGI: > 100 µM
[9]
  TGI: > 100 µM
[10]
  TGI: > 100 µM

## Nc1ccc2c(c1)C1=NNC(=O)CC1C2 (stereo not given)
[1]
  TGI: > 100 µM
[2]
  TGI: > 100 µM
[3]
  TGI: > 100 µM
[4]
  TGI: > 100 µM
[5]
  TGI: > 100 µM
[6]
  TGI: > 100 µM
[7]
  TGI: > 100 µM
[8]
  TGI: > 100 µM
[9]
  TGI: > 100 µM
[10]
  TGI: > 100 µM

From PubChem BioAssay (NCI)
